The text below walks through data of US20050009924A1 (priority 2003, published 2005).

In general, IC50 refers to the midpoint of a concentration-inhibition curve. As usually defined, the viability is a read-out of living cells in per cent, often relative to untreated cells.

One data set relates to human hepatoma G2 cells. Briefly: Cytotoxicity assay (XTT colorimetric), Hep G2. The class given is cell-based. The settings on record: 48 h of drug exposure. Background: Formazan colour is commonly taken as a measure of viable cells.
Data set [1] can be described thus: MTT relative viability, PhTERT-SEAP (hTERT-BJ1) cells. The settings on record: human; for viability at 48 h, 1.9 µM / viability at 48 h, 19 µM / viability at 48 h, 190 µM: hTERT-BJ1 cells, stable PhTERT-SEAP reporter clone.
Experimental: (§2) The tetrazolium reagent (MTT; 3-(4,5-di-methylthiazol)-2,5-diphenyl tetrazolium bromide, USB) was designed to yield a colored formazan upon metabolic reduction by viable cells. Approximately […] cells were plated onto each well of a 96-well plate and incubated in 5% CO2 at 37° C. for 24 h. To assess the in vitro cytotoxicity, each compound was dissolved in DMSO and prepared immediately before the experiments and was diluted into the complete medium before addition to cell cultures. Test compounds were then added to the culture medium for designated various concentrations. After 48 h, an amount of 25 μL of MTT was added to each well, and the samples were incubated at 37° C. for 4 h. A 100 μL solution of lysis buffer containing 20% SDS and 50% N,N-dimethylformamide was added to each well and incubated at 37° C. for another 16 h. The absorbency at 550 nm was measured using an ELISA reader.
(§3) Non small lung cancer cells H1299 (telomerase positive) were grown in RPMI 1640 media supplemented with 10% fetal bovine serum, 100 units/mL penicillin and 100 mg/mL streptomycin in a humidified atmosphere with 5% CO2 at 37° C. The hTERT immortalized hTERT-BJ1 (BD Biosciences Clontech)^39 were grown in DMEM media supplemented with 10% fetal calf serum, 100 units/mL penicillin and 100 mg/mL streptomycin, 1 mM sodium pyruvate, and 4 mM I-arginine in a humidified atmosphere with 5% CO2 at 37° C. Culture media were changed every 3 days. […] The stable clones derived from H1299 or hTERT-BJ1 were cultured using conditions that are similar to their parental cells.
The subject of a further data set is rat glioma C6 cells. The data set is described as follows: Cytotoxicity assay (XTT colorimetric), C6 cells. The settings on record: 48 h of drug exposure. The class given is cell-based.
Data set [2] in a line: MTT relative viability, PhTERT-SEAP (H1299) cells. The note with it: human.
Data set [3] deals with transcriptional activity of hTERT. Briefly: SEAP reporter assay of hTERT expression, PhTERT-SEAP (H1299). The note with it: for Relative SEAP activity (%) / SEAP/vibility: PhTERT-SEAP(hTERT-H1299). The class given is cell-based, human. The procedure, abridged: (§1)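 Drug exposure: varying amounts, 24 h, following 24 h culture at 37° C and fresh medium. Media heat-inactivated (65° C, 10 min) to remove endogenous phosphatases, then combined 1:1 with diethanolamine/MgCl2/homoarginine buffer and 12 mM p-nitrophenyl phosphate; A405 slope recorded.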
Background: In a reporter assay the amount or activity of a reporter protein is the signal.

Data set [4] has the same test system. Briefly: SEAP reporter assay of hTERT expression, PhTERT-SEAP (hTERT-BJ1). The class given is cell-based, human. The note with it: for Relative SEAP activity (%) / SEAP/vibility: PhTERT-SEAP (hTERT-BJ1). The gist of the method:
as §1

Data set [5] deals with iron-induced lipid peroxidation in rat brain homogenates. Briefly: Iron-induced lipid peroxidation in rat brain homogenates. The settings on record: for Inhibition of LP(10 mM): mean percent inhibition (Table 3); for LP (%) (10 mM): relative percentage of inhibition (Table 1).
In data set [6] the test system is hepatitis B virus transfected hepatoma cell lines, HepG 2.2.15 cells. The data set is described as follows: Cytotoxicity assay, 2.2.15 cells. The settings on record: 48 h of drug exposure. The class given is cell-based, human.
The test system of a further data set is hTERT-BJ1 cells. Briefly: MTT relative viability, PhTERT-SEAP (hTERT-BJ1) cells. The note with it: PhTERT-SEAP (hTERT-BJ1).
Data set [7] has as its system non-small-cell lung cancer cells H1299. Briefly: MTT relative viability, PhTERT-SEAP (H1299) cells. The note with it: PhTERT-SEAP(hTERT-H1299).
The mark [8] stands for this setting: Homo sapiens, NCI-H1299, H1299, read-out: Relative SEAP activity (%).
[9] abbreviates: Homo sapiens, hTERT-BJ1, read-out: Relative SEAP activity (%).

Structures can show the parent of a compound that is named as a salt. A value given as a limit tells only on which side of the number the result lay.

Experimental for hTERT-BJ1 cells: as §2, §3

The molecule `O=C(Oc1cccc2c1C(=O)c1cccc(OC(=O)c3ccccc3Cl)c1C2=O)c1ccccc1Cl` displayed an IC50 with human hepatoma G2 cells (Homo sapiens, HepG2) of 0.04 ± 0.01 µM. For the same molecule, in data set [1], the viability at 48 h, 1.9 µM was found to be 107 ± 5.5%; the viability at 48 h, 19 µM was determined as 92 ± 4.3%; the viability at 48 h, 190 µM was 40 ± 4%. The molecule further displayed an IC50 in the data set on rat glioma C6 cells (Rattus norvegicus, C6) of 40.7 ± 4.7 µM. Also, in data set [2], the viability at 48 h, 1.9 µM was 74 ± 5.3%; the viability at 48 h, 19 µM is 34 ± 3.4%; the viability at 48 h, 190 µM is 30 ± 1.4%. In [3] (setting [8]), the activity at 1.9 µM stood at 93 ± 4.4%, the activity at 19 µM is 101 ± 4.9% and the activity at 190 µM turned out to be 97 ± 5.3%. Further, in [4] (setting [9]), the activity at 1.9 µM was 120 ± 10.5%, the activity at 19 µM is 116 ± 3.7% and the activity at 190 µM was found to be 97 ± 10.8%. For the same molecule, the “Inhibition of LP(10 mM)” value in [5] (10 mM) amounted to 5 ± 0.5%.
In turn, `O=C(Oc1cccc2c1C(=O)c1cccc(OC(=O)c3cccc(Cl)c3)c1C2=O)c1cccc(Cl)c1` registered an IC50 in the data set on human hepatoma G2 cells (Homo sapiens, HepG2) of 15.1 ± 1.9 µM. Further, in data set [1], the viability at 48 h, 1.9 µM was determined as 101 ± 2.3%; the viability at 48 h, 19 µM came to 80 ± 6.7%; the viability at 48 h, 190 µM is 44 ± 6%. In the data set on rat glioma C6 cells (Rattus norvegicus, C6), half-maximal inhibition (IC50) was put at 25.1 ± 2.8 µM. For the same molecule, in data set [2], the viability at 48 h, 1.9 µM was 98 ± 3.9%; the viability at 48 h, 19 µM was determined as 88 ± 7.2%; the viability at 48 h, 190 µM was 46 ± 3.5%. In [3] (setting [8]), the activity at 1.9 µM came out at 83 ± 5.7%, the activity at 19 µM is 92 ± 8.1% and the activity at 190 µM turned out to be 81 ± 2.5%. Besides, in [4] (setting [9]), the activity at 1.9 µM was determined as 154 ± 23%, the activity at 19 µM stood at 152 ± 15.8% and the activity at 190 µM is 91 ± 25.2%. Moreover, the “Inhibition of LP(10 mM)” value in [5] (10 mM) came to 1 ± 0.1%.
For `O=C1c2cccc(SCC(O)CO)c2C(=O)c2cccc(SCC(O)CO)c21` (stereo not drawn), the IC50 with human hepatoma G2 cells (Homo sapiens, HepG2) came out at 34.3 ± 1.8 µM; in the data set with rat glioma C6 cells (Rattus norvegicus, C6), 38.5 ± 1.5 µM. The viability at 48 h, 2.4 µM was 98 ± 10.7% in data set [1] and 102 ± 6.2% in [2]. Further, the viability at 48 h, 24 µM turned out to be 86 ± 5.5% in data set [1] and 103 ± 4.2% in data set [2]. Also, the viability at 48 h, 240 µM turned out to be 79 ± 8.2% in data set [1] and 83 ± 18.2% in data set [2]. Besides, the activity at 2.4 µM in [3] (Homo sapiens, NCI-H1299, 2.4 μM, H1299, read-out: Relative SEAP activity (%)) worked out at 105 ± 21.6%; in [4] (Homo sapiens, 2.4 μM, hTERT-BJ1, read-out: Relative SEAP activity (%)), 144 ± 16.9%. The activity at 24 µM in data set [3] (Homo sapiens, NCI-H1299, 24 μM, H1299, read-out: Relative SEAP activity (%)) was 90 ± 5.7%; in data set [4] (Homo sapiens, 24 μM, hTERT-BJ1, read-out: Relative SEAP activity (%)), 136 ± 10%. Also, the activity at 240 µM was 81 ± 6.1% in data set [3] (Homo sapiens, NCI-H1299, 240 μM, H1299, read-out: Relative SEAP activity (%)) and 142 ± 9.1% in data set [4] (Homo sapiens, 240 μM, hTERT-BJ1, read-out: Relative SEAP activity (%)). In addition, in data set [5] (10 mM), the “LP (%) (10 mM)” value turned out to be 83 ± 1.1%.
In the case of `Cc1c(C)c2c(c(C)c1O)CC[C@@](C)(CCC[C@H](C)CCC[C@H](C)CCCC(C)C)O2` [(+)−α-Tocopherol, reference compound], the “Inhibition (%)” value in [5] (0.01 mM) was 0%; in data set [5] (0.1 mM), 0%; in [5] (1 mM), 55 ± 1.7%; in data set [5] (10 mM) it was 100%. The “Inhibition of LP(10 mM)” value in data set [5] (10 mM) is on record as greater than 100%. For the same molecule, the “LP (%) (10 mM)” value in data set [5] (10 mM) was greater than 100%.
As for `O=C1c2cccc(O)c2C(=O)c2cccc(O)c21` [Anthrarufin, 1,5-dihydroxyanthraquinone, reference compound], in data set [5] (10 mM), the “Inhibition of LP(10 mM)” value is recorded as −36 ± 1.1^ % and the “LP (%) (10 mM)” value is −36 ± 1.9%.
For `O=C1O[C@H]([C@@H](O)CO)C(O)=C1O` [Ascorbic acid, reference compound], the “Inhibition (%)” value in data set [5] (0.01 mM) is on record as 10 ± 0.6%; in [5] (0.1 mM), 32 ± 1.2%; in [5] (1 mM), 75 ± 1.5%; in data set [5] (10 mM) it was 100%. In addition, the “Inhibition of LP(10 mM)” value in data set [5] (10 mM) was greater than 100%. The “LP (%) (10 mM)” value in [5] (10 mM) is greater than 100%.
Consider `O=C1c2c(O)ccc(O)c2C(=O)c2c(NCCNCCO)ccc(NCCNCCO)c21` [Mitoxantrone-HCl, reference compound], for which the “Inhibition (%)” value was 5 ± 0.3% in data set [5] (0.01 mM), 22 ± 3.5% in data set [5] (0.1 mM), 54 ± 2.1% in data set [5] (1 mM) and 100% in [5] (10 mM).
On to `O=C(Nc1ccc(NC(=O)c2ccc(F)cc2)c2c1C(=O)c1ccccc1C2=O)c1ccc(F)cc1` [VI30, 1,4-Bis(4-fluorobenzoylamido)-9,10-anthracenedione], for which the IC50 (in the data set on human hepatoma G2 cells; in data set [6]; in the data set with rat glioma C6 cells) was greater than 20 µM in each case. Besides, the “Relative MTT viability (%)” value in the data set on hTERT-BJ1 cells (2.0 μM) is given as 103 ± 9.0%; in the data set on hTERT-BJ1 cells (20 μM), 107 ± 3.1%; in the data set with hTERT-BJ1 cells (207 μM), 83 ± 5.3%; in [7] (2.0 μM), 110 ± 5.9%; in data set [7] (20 μM), 103 ± 6.6%; in data set [7] (207 μM), 89 ± 6.7%. The “Relative SEAP activity (%)” value in data set [3] (2.0 μM) came out at 111 ± 3.6%; in data set [3] (20 μM), 107 ± 4.8%; in data set [3] (207 μM), 107 ± 9.0%; in data set [4] (2.0 μM), 104 ± 16.3%; in [4] (20 μM), 101 ± 27.6%; in [4] (207 μM), 100 ± 14.5%. In addition, the SEAP/vibility in [3] (2.0 μM) came to 1.01; in data set [3] (20 μM), 1.04; in data set [3] (207 μM) it was 1.20; in [4] (2.0 μM), 1.01; in data set [4] (20 μM), 0.95; in data set [4] (207 μM) it was 1.20.
Take `O=C(Nc1ccc(NC(=O)c2ccc(C(F)(F)F)cc2)c2c1C(=O)c1ccccc1C2=O)c1ccc(C(F)(F)F)cc1` [VI31, 1,4-Bis(4-trifluorobenzoylamido)-9,10-anthracenedione]: the IC50 (with human hepatoma G2 cells; in data set [6]; with rat glioma C6 cells) was greater than 20 µM each time. For the same molecule, the “Relative MTT viability (%)” value with hTERT-BJ1 cells (1.7 μM) was 98 ± 4.4%; in the data set with hTERT-BJ1 cells (17 μM), 100 ± 3.4%; with hTERT-BJ1 cells (171 μM), 89 ± 3.6%; in data set [7] (1.7 μM), 98 ± 7.8%; in [7] (17 μM), 100 ± 8.9%; in data set [7] (171 μM), 77 ± 6.7%. Besides, the “Relative SEAP activity (%)” value in [3] (1.7 μM) was determined as 110 ± 5.5%; in [3] (17 μM), 114 ± 5.6%; in [3] (171 μM), 96 ± 2.1%; in [4] (1.7 μM), 100 ± 15.1%; in data set [4] (17 μM) it was 90 ± 16.3%; in data set [4] (171 μM), 103 ± 17.6%. Also, the SEAP/vibility in [3] (1.7 μM) is 1.12; in data set [3] (17 μM), 1.14; in [3] (171 μM), 1.24; in [4] (1.7 μM), 1.02; in data set [4] (17 μM), 0.90; in [4] (171 μM), 1.16.
In the case of `NCC1CC1CCC(=O)Nc1ccc(NC(=O)CCC2CC2CN)c2c1C(=O)c1ccccc1C2=O` (stereo not drawn) [VI36, 1,4-Bis[2-(aminomnethyl)cyclopropanepropionamido]-9,10-anthracenedione], the IC50 is 6.46 µM with human hepatoma G2 cells, 3.46 µM in data set [6] and 2.76 µM with rat glioma C6 cells. In addition, the “Relative MTT viability (%)” value in the data set with hTERT-BJ1 cells (2.0 μM) turned out to be 103 ± 6.4%; in the data set on hTERT-BJ1 cells (20 μM) it was 92 ± 11.4%; in the data set with hTERT-BJ1 cells (204 μM), 104 ± 17.4%; in [7] (2.0 μM), 106 ± 4.1%; in [7] (20 μM), 64 ± 5.1%; in [7] (204 μM), 30 ± 4.7%. Besides, the “Relative SEAP activity (%)” value in [3] (2.0 μM) came out at 123 ± 12.4%; in [3] (20 μM) it was 112 ± 11.5%; in data set [3] (204 μM), 80 ± 14.5%; in data set [4] (2.0 μM), 91 ± 19.4%; in data set [4] (20 μM), 95 ± 14.2%; in data set [4] (204 μM), 65 ± 15.7%. For the same molecule, the SEAP/vibility stood at 1.16 in [3] (2.0 μM); 1.76 in data set [3] (20 μM); 2.71 in data set [3] (204 μM); 0.88 in data set [4] (2.0 μM); 1.03 in data set [4] (20 μM); 0.63 in data set [4] (204 μM).
